{
  "source": "paper PMC8161026",
  "about": "“Synthesis and Anticancer Activity Evaluation of 5-[2-Chloro-3-(4-nitrophenyl)-2-propenylidene]-4-thiazolidinones” (Molecules, 2021)",
  "key": {"TK-10": {"test_system": "TK-10", "assay": "NCI DTP 60 cell line screen, SRB"}, "RPMI-8226 [1]": {"test_system": "RPMI-8226", "assay": "cells", "details": "Homo sapiens, RPMI-8226, 48 h"}, "HCT-116": {"test_system": "HCT-116", "details": "HCT-116 (Colon Cancer), 48 h, SRB"}, "NCI-H460": {"test_system": "NCI-H460", "details": "NCI-H460 (Non-Small Cell Lung Cancer), 48 h, SRB"}, "OVCAR-8": {"test_system": "OVCAR-8", "assay": "NCI DTP 60 cell line screen, SRB"}, "K-562": {"test_system": "K-562", "assay": "cells", "details": "Homo sapiens, K562, 48 h"}, "RPMI-8226 [2]": {"test_system": "RPMI-8226"}, "SNB-19": {"test_system": "SNB-19", "assay": "NCI DTP 60 cell line screen, SRB"}, "HCT-15": {"test_system": "HCT-15", "assay": "NCI DTP 60 cell line screen, SRB"}, "MDA-MB-435": {"test_system": "MDA-MB-435", "assay": "NCI DTP 60 cell line screen, SRB"}, "EKVX": {"test_system": "EKVX", "details": "EKVX (Non-Small Cell Lung Cancer), 48 h, SRB"}, "[3]": {"test_system": "Non-Small Cell Lung Cancer subpanel", "assay": "cells", "procedure": "(§1) At the first stage of biological activity study, the antitumor activity screening of the selected compounds 2b, 2c, 2f, 2h, and 2j was performed according to the NCI DTP (USA) standard protocol at the concentrations ranging from 10^−4 to 10^−8 M toward 60 tumor cell lines. The percentage of growth was evaluated spectrophotometrically versus controls not treated with test agents after 48 h exposure and using SRB protein assay to estimate cell viability or growth. Dose–response parameters were calculated for each cell line: GI50—molar concentration of the compound that inhibits 50% net cell growth; TGI—molar concentration of the compound leading to the total inhibition; and LC50—molar concentration of the compound leading to 50% net cell death. Furthermore, mean graph midpoints (MG_MID) were calculated for each of the parameters, giving an average activity parameter over all cell lines for the tested compound. For the MG_MID calculation, insensitive cell lines were included with the highest concentration tested.\n(§2) The selectivity index (SI) obtained by dividing the full panel MG-MID (mM) of the tested compound by their individual subpanel MG-MID (mM) was considered as a measure of selectivity of anticancer activity (Table 3).\n(§3) Primary anticancer assay was performed on a panel of approximately sixty human tumor cell lines derived from nine neoplastic diseases, in accordance with the protocol of the Drug Evaluation Branch, National Cancer Institute, Bethesda. Tested compounds were added to the culture at a single concentration (10^−5 M) and the cultures were incubated for 48 h. End point determinations were made with a protein binding dye, sulforhodamine B (SRB). […] The percentage growth was evaluated spectrophotometrically versus controls not treated with test agents.\n(§4) Dose–response parameters (GI50, TGI, LC50) were calculated for each compound. […] The drug concentration resulting in total growth inhibition (TGI) was calculated from Ti = Tz. The LC50 (concentration of drug resulting in a 50% reduction in the measured protein at the end of the drug treatment as compared to that at the beginning) indicating a net loss of cells following treatment was calculated from [(Ti − Tz)/Tz] × 100 = −50 (2). Values were calculated for each of these parameters if the level of activity was reached; however, if the effect was not reached or was excessive, the value for that parameter was expressed as more or less than the maximum or minimum concentration tested."}, "Ovarian Cancer subpanel": {"test_system": "Ovarian Cancer subpanel", "assay": "cells", "procedure": "as §1, §2, §3, §4"}, "Colon Cancer subpanel": {"test_system": "Colon Cancer subpanel", "assay": "cells", "procedure": "as §1, §2, §3, §4"}, "Prostate Cancer subpanel": {"test_system": "Prostate Cancer subpanel", "assay": "cells", "procedure": "as §1, §2, §3, §4"}, "Breast Cancer subpanel": {"test_system": "Breast Cancer subpanel", "assay": "cells", "procedure": "as §1, §2, §3, §4"}, "Renal Cancer subpanel": {"test_system": "Renal Cancer subpanel", "assay": "cells", "procedure": "as §1, §2, §3, §4"}, "Leukemia subpanel": {"test_system": "Leukemia subpanel", "assay": "cells", "procedure": "as §1, §2, §3, §4"}, "[4]": {"details": "Homo sapiens, read-out: MG_MID, GI50"}, "[5]": {"details": "Homo sapiens, read-out: MG_MID, LC50"}},
  "data": [
    {"smiles": "O=C(O)CCN1C(=O)/C(=C/C(Cl)=C/c2ccc([N+](=O)[O-])cc2)SC1=S", "note": "[Compound 2h, 3-{5-[(Z,2Z)-2-Chloro-3-(4-nitrophenyl)-2-propenylidene]-4-oxo-2-thioxothiazolidin-3-yl}propanoic acid]", "values": [
      {"measurement": "GI50", "setting": "TK-10; Homo sapiens, TK-10, 48 h", "result": 2330, "unit": "nM"},
      {"measurement": "CC50", "setting": "TK-10; Homo sapiens, TK-10, 48 h, read-out: LC50", "result": 92, "unit": "µM"},
      {"measurement": "TGI", "setting": "TK-10; TK-10 (Renal Cancer), 48 h, SRB", "result": 16.9, "unit": "µM"},
      {"measurement": "GI50", "setting": "RPMI-8226 [1]", "result": 138, "unit": "nM"},
      {"measurement": "CC50", "setting": "RPMI-8226 [1]; read-out: LC50", "result": "> 100", "unit": "µM"},
      {"measurement": "TGI", "setting": "HCT-116", "result": 1.19, "unit": "µM"},
      {"measurement": "TGI", "setting": "NCI-H460", "result": 3.32, "unit": "µM"},
      {"measurement": "GI50", "setting": "OVCAR-8; Homo sapiens, OVCAR-8, 48 h", "result": 244, "unit": "nM"},
      {"measurement": "CC50", "setting": "OVCAR-8; Homo sapiens, OVCAR-8, 48 h, read-out: LC50", "result": "> 100", "unit": "µM"},
      {"measurement": "TGI", "setting": "OVCAR-8; OVCAR-8 (Ovarian Cancer), 48 h, SRB", "result": 11.5, "unit": "µM"},
      {"measurement": "GI50", "setting": "K-562", "result": 212, "unit": "nM"},
      {"measurement": "CC50", "setting": "K-562; read-out: LC50", "result": "> 100", "unit": "µM"},
      {"measurement": "TI (Therapeutic Index)", "setting": "RPMI-8226 [2]; GI50 (normal blood lymphocyte)/GI50 (RPMI-8226)", "result": 395.22},
      {"measurement": "TGI", "setting": "RPMI-8226 [2]; RPMI-8226 (Leukemia), 48 h, SRB", "result": 1.30, "unit": "µM"},
      {"measurement": "GI50", "setting": "SNB-19; Homo sapiens, SNB-19, 48 h", "result": 658, "unit": "nM"},
      {"measurement": "CC50", "setting": "SNB-19; Homo sapiens, SNB-19, 48 h, read-out: LC50", "result": 83.7, "unit": "µM"},
      {"measurement": "TGI", "setting": "SNB-19; SNB-19 (CNS Cancer), 48 h, SRB", "result": 26.3, "unit": "µM"},
      {"measurement": "TGI", "setting": "HCT-15; HCT-15 (Colon Cancer), 48 h, SRB", "result": 2.96, "unit": "µM"},
      {"measurement": "GI50", "setting": "HCT-15; Homo sapiens, HCT-15, 48 h", "result": 230, "unit": "nM"},
      {"measurement": "CC50", "setting": "HCT-15; Homo sapiens, HCT-15, 48 h, read-out: LC50", "result": "> 100", "unit": "µM"},
      {"measurement": "GI50", "setting": "MDA-MB-435; Homo sapiens, MDA-MB-435, 48 h", "result": 1250, "unit": "nM"},
      {"measurement": "CC50", "setting": "MDA-MB-435; Homo sapiens, MDA-MB-435, 48 h, read-out: LC50", "result": 29.3, "unit": "µM"},
      {"measurement": "TGI", "setting": "MDA-MB-435; MDA-MB-435 (Breast Cancer), 48 h, SRB", "result": 4.12, "unit": "µM"},
      {"measurement": "TGI", "setting": "EKVX", "result": 4.01, "unit": "µM"},
      {"measurement": "SI (selectivity index), GI50", "setting": "[3]", "result": 0.59},
      {"measurement": "SI (selectivity index), TGI", "setting": "[3]", "result": 1.38},
      {"measurement": "GI50", "setting": "[3]; [4]", "result": 2650, "unit": "nM"},
      {"measurement": "CC50", "setting": "[3]; [5]", "result": 61.4, "unit": "µM"},
      {"measurement": "MG_MID, TGI", "setting": "[3]; Non-Small Cell Lung Cancer panel mean", "result": 9.61, "unit": "µM"},
      {"measurement": "SI (selectivity index), LC50", "setting": "[3]; full panel MG_MID / Non-Small Cell Lung Cancer subpanel MG_MID", "result": 1.06},
      {"measurement": "SI (selectivity index), GI50", "setting": "Ovarian Cancer subpanel", "result": 0.74},
      {"measurement": "SI (selectivity index), TGI", "setting": "Ovarian Cancer subpanel", "result": 1.05},
      {"measurement": "GI50", "setting": "Ovarian Cancer subpanel; [4]", "result": 2130, "unit": "nM"},
      {"measurement": "CC50", "setting": "Ovarian Cancer subpanel; [5]", "result": 68.7, "unit": "µM"},
      {"measurement": "MG_MID, TGI", "setting": "Ovarian Cancer subpanel; Ovarian Cancer panel mean", "result": 12.7, "unit": "µM"},
      {"measurement": "SI (selectivity index), LC50", "setting": "Ovarian Cancer subpanel; full panel MG_MID / Ovarian Cancer subpanel MG_MID", "result": 0.95},
      {"measurement": "SI (selectivity index), GI50", "setting": "Colon Cancer subpanel", "result": 3.43},
      {"measurement": "SI (selectivity index), TGI", "setting": "Colon Cancer subpanel", "result": 0.57},
      {"measurement": "MG_MID, TGI", "setting": "Colon Cancer subpanel; Colon Cancer panel mean", "result": 23.3, "unit": "µM"},
      {"measurement": "GI50", "setting": "Colon Cancer subpanel; [4]", "result": 458, "unit": "nM"},
      {"measurement": "CC50", "setting": "Colon Cancer subpanel; [5]", "result": "> 100", "unit": "µM"},
      {"measurement": "SI (selectivity index), LC50", "setting": "Colon Cancer subpanel; full panel MG_MID / Colon Cancer subpanel MG_MID", "result": "<0.65"},
      {"measurement": "SI (selectivity index), GI50", "setting": "Prostate Cancer subpanel", "result": 2.77},
      {"measurement": "SI (selectivity index), TGI", "setting": "Prostate Cancer subpanel", "result": 1.55},
      {"measurement": "GI50", "setting": "Prostate Cancer subpanel; [4]", "result": 567, "unit": "nM"},
      {"measurement": "CC50", "setting": "Prostate Cancer subpanel; [5]", "result": 47.1, "unit": "µM"},
      {"measurement": "MG_MID, TGI", "setting": "Prostate Cancer subpanel; Prostate Cancer panel mean", "result": 8.59, "unit": "µM"},
      {"measurement": "SI (selectivity index), LC50", "setting": "Prostate Cancer subpanel; full panel MG_MID / Prostate Cancer subpanel MG_MID", "result": 1.38},
      {"measurement": "SI (selectivity index), GI50", "setting": "Breast Cancer subpanel", "result": 2.63},
      {"measurement": "SI (selectivity index), TGI", "setting": "Breast Cancer subpanel", "result": 0.63},
      {"measurement": "MG_MID, TGI", "setting": "Breast Cancer subpanel; Breast Cancer panel mean", "result": 21.1, "unit": "µM"},
      {"measurement": "GI50", "setting": "Breast Cancer subpanel; [4]", "result": 598, "unit": "nM"},
      {"measurement": "CC50", "setting": "Breast Cancer subpanel; [5]", "result": 49.6, "unit": "µM"},
      {"measurement": "SI (selectivity index), LC50", "setting": "Breast Cancer subpanel; full panel MG_MID / Breast Cancer subpanel MG_MID", "result": 1.31},
      {"measurement": "SI (selectivity index), TGI", "setting": "Renal Cancer subpanel", "result": 2.77},
      {"measurement": "GI50", "setting": "Renal Cancer subpanel; [4]", "result": 990, "unit": "nM"},
      {"measurement": "CC50", "setting": "Renal Cancer subpanel; [5]", "result": 23.8, "unit": "µM"},
      {"measurement": "MG_MID, TGI", "setting": "Renal Cancer subpanel; Renal Cancer panel mean", "result": 4.81, "unit": "µM"},
      {"measurement": "SI (selectivity index), LC50", "setting": "Renal Cancer subpanel; full panel MG_MID / Renal Cancer subpanel MG_MID", "result": 2.73},
      {"measurement": "SI (selectivity index), GI50", "setting": "Leukemia subpanel", "result": 10.83},
      {"measurement": "SI (selectivity index), TGI", "setting": "Leukemia subpanel", "result": 2.45},
      {"measurement": "TI (Therapeutic Index)", "setting": "Leukemia subpanel; GI50 (normal blood lymphocyte)/GI50 (Leukemia Panel)", "result": 376.14},
      {"measurement": "GI50", "setting": "Leukemia subpanel; [4]", "result": 145, "unit": "nM"},
      {"measurement": "CC50", "setting": "Leukemia subpanel; [5]", "result": "> 100", "unit": "µM"},
      {"measurement": "MG_MID, TGI", "setting": "Leukemia subpanel; Leukemia panel mean", "result": 5.42, "unit": "µM"},
      {"measurement": "SI (selectivity index), LC50", "setting": "Leukemia subpanel; full panel MG_MID / Leukemia subpanel MG_MID", "result": "<0.65"}
    ]}
  ]
}
